Test results taken from patent publication US20090253654A1 (priority 2005, published 2009).
Each block holds one compound with its values, some of them ahead of it.

How the values were obtained:
in vivo = conditions: for Co (Brain), highest concentration achieved in mouse brain: i.v. injection of 3 mg/kg; for Kp: in vivo
Method: FIG. 5: Pharmacokinetics of pro-galantamine Gln-1062 (3 mg/kg) in the mouse. […] FIG. 5b is an excerpt (“zoom”) of FIG. 5a, showing the concentration range between 0.00 and 1.00 μg/g (substance/body weight) more in detail.
Co is the highest pro-galantamine concentration (ng/ml) achieved in mouse brain after i.v. injection of 3 mg/kg of pro-galantamine. R-Pro is the brain-to-blood concentration ratio of pro-galantamine, R-Gal that of galantamine under these experimental conditions. For comparison, Co and R-Gal are also provided for i.v. injection of the same amount of galantamine.
Determination of the pharmacokinetic profiles of Gln-1062 and its cleavage product galantamine in blood and brain. Determine the brain-to-blood concentration ratios of Gln-1062 and its cleavage product galantamine, and assess the blood-brain barrier penetration capacities.
Analytical method for estimation of Gln-1062 was evaluated for its linearity, precision & accuracy and recovery in SAM blood and brain homogenate using LC/MS/MS.
Blood samples were collected from the retro-orbital plexus. 0.5 ml of blood was collected into a pre-labeled polypropylene micro centrifuge tube containing sodium citrate as the anticoagulant, and kept on ice.
Immediately after blood withdrawal, brain was perfused with phosphate buffer saline (pH 7.4), removed and frozen on dry ice.
Brain samples were thawed on ice and weighed. n appropriate volume ice cold homogenizing media (methanol:water::20:80,v/v) added. n ice, homogenized the brain sample with the polytron homogenizer and make up the volume with homogenizing media to get 1 gm of brain per 4 mL of homogenate. after homogenizing, immediately freezed the brain homogenate samples at −80° C. until analysis.

brain cholinesterase = target: T1, brain cholinesterase (Mus musculus, UniProt P21836); type: biochemical; conditions: mouse brain homogenate, 200 μM acetylthiocholine; pro-galantamines up to 50 μM
T1 construct: from tissue; host or cells: mouse brain homogenate
T1 sequence (P21836 32-614): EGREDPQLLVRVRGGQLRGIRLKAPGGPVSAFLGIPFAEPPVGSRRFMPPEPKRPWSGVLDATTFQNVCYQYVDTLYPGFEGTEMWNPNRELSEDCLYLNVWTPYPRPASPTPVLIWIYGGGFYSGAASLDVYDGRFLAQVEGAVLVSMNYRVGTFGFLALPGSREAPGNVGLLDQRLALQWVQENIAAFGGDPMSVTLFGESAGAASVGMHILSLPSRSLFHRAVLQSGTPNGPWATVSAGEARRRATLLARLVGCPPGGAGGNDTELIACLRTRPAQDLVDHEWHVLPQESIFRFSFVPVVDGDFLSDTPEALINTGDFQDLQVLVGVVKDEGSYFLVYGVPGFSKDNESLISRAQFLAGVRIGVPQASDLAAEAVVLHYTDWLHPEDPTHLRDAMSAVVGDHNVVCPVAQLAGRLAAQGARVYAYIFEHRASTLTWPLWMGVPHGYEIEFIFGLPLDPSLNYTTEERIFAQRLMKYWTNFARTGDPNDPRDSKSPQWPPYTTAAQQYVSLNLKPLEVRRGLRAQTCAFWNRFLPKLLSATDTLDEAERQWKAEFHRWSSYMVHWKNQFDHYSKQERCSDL
Method: A 20% mouse brain homogenate was used, supplemented with 200 μM of acetylthiocholine as substrate, and the initial reaction kinetics were measured according to Riddles P W, Blakeley R L, Zerner B., “Reassessment of Ellman's reagent” Methods Enzymol.
The brain is removed from the animal (mouse), shock frozen in liquid nitrogen and stored at minus 80° C. until use. Before preparing the extract, the frozen brain is thawed on ice and the weight is determined. Ice cold buffer (130 mM NaCl, 5 mM KCl, 2.5 mM CaCl2, 1 mM MgCl2, 5 mM Glucose, 5 mM HEPES, pH 7.4) is added to the thawed mouse brain (1:4, weight to volume, resulting in a 20% brain homogenate). The tissue is then homogenized in a potter homogeniser on ice, moving the piston up and down 11 times at 240 rpm. The freshly prepared mouse brain homogenate is divided into aliquots.
A modified Ellmann's esterase test is used. Briefly the method relies on the cleavage of the substrate acetylthiocholine to acetate and thiocholine. […] The inhibition is expressed as percent of the non inhibited reaction according to following equation: […]

[1] = target: T2, a4β2 neuronal nicotinic acetylcholine receptor (Homo sapiens, UniProt P17787+P43681); assay: Whole-cell patch clamp recording of allosteric potentiation in HEK-293 cells; type: cell-based
T2 construct: expressed in transfected cells; host or cells: HEK-293
T2 sequence (P43681 29-627 limits assumed): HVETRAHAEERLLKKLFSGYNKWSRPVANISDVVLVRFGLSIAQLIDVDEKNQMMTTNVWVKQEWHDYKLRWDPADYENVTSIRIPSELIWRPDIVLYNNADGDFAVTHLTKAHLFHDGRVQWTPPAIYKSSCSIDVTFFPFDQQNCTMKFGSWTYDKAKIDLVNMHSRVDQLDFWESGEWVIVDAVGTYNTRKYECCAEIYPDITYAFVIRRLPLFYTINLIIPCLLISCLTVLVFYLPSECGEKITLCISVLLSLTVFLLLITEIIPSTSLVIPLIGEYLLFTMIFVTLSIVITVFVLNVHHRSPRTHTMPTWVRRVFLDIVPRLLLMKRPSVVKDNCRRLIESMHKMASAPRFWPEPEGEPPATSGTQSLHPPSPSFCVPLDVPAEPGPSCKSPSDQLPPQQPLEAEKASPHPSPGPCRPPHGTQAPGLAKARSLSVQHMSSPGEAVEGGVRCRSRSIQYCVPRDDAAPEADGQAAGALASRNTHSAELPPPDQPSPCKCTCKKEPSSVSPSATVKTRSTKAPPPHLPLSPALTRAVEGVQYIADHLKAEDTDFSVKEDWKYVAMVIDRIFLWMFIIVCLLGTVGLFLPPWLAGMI
T2 sequence (P17787 26-502): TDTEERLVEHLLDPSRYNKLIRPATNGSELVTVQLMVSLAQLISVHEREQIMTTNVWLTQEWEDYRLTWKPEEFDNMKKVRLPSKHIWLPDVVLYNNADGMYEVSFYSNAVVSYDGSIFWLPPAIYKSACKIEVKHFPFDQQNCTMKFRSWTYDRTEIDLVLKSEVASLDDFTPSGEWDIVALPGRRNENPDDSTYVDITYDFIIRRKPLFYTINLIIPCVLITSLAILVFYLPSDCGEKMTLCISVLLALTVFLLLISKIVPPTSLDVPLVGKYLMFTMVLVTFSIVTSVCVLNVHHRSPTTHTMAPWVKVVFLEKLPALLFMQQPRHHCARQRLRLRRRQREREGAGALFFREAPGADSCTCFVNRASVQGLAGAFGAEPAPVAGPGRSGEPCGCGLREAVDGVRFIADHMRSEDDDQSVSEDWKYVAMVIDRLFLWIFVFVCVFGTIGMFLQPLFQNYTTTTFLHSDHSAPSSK
Method: FIG. 4: Interaction of galantamine and pro-galantamine with a4β2 neuronal nicotinic acetylcholine receptor ectopically expressed in HEK-293 cells. The increase in response to acetylcholine in the presence of galantamine and Gln-1062, respectively, was determined by whole-cell patch clamp recording. Galantamine achieved a maximal enhancement of response of ˜40% whereas the pro-galantamine achieved a maximal enhancement of only ˜17%.
Investigation of the allosteric modulation effect of drug candidates on nicotinic acetylcholine receptors (nAChRs) expressed in HEK-293 cells by electrophysiology. Results shown as FIG. 4.
Single HEK-293 cells expressing either human α4β2, human α3β4, or chimeric chicken α7 (with mouse 5HT3) nAChR were plated on fibronectin-coated cover slips for 3 days before measurement. […] A programmable puller (Sutter, USA) was used to prepare a twin pair of ready for use pipettes. […] To evaluate an allosteric potentiating ligand (APL) effect of selected compounds on each subtype of nAChR, they were added to stimulating nicotine solutions at the following concentrations: 1, 5, 10, 50, 100, 500, 1,000, 5,000 and 10,000 nM, and solutions were applied to the cell surface during 500 ms pulses through the U-tube, and then corresponding currents, digitized to 10 kHz, were recorded for 10 s. […]

[2] = system: scopolamine-induced amnesia in mice; assay: Reversal from scopolamine-induced amnesia in mice, T-maze alternation; type: in vivo, mouse; conditions: i.p.
Method: Scopolamine induces a memory deficit that can be measured by […] alternation in a T-maze trial. The cognition enhancing drugs were i.p. injected at several different doses together with scopolamine 20 min before a T-maze trial. Recovery was measured as a function of dose, and the EC50 was determined for each drug.
Analysis of variance (ANOVA) was performed on the result data.

[3] = cited from earlier work
[4] = unmodified drug; cited from earlier work

melting point: 127 to 129 °C
SMILES: C=C[C@@]12C=C[C@H](O)C[C@@H]1Oc1c(OC)ccc(CNC)c12 [10,11-Seco-11,12-dehydro-galantamine, (3R,4aS,9bS)-6-Methoxy-9-methylaminomethyl-3,4,4a,9b-tetrahydro-9b-vinyl-dibenzofuran-3-ol]

Co (Brain), highest concentration achieved in mouse brain (in vivo): 1985 ng/mL
Kp (in vivo; mouse, iv, 3 mg/kg): 6.9
SMILES: CCC(=O)O[C@H]1C=C[C@@]23CCN(C)Cc4ccc(OC)c(c42)O[C@H]3C1 [GLN-0978]

Co (Brain), highest concentration achieved in mouse brain (in vivo): 3166 ng/mL
Kp (in vivo; mouse, iv, 3 mg/kg): 6.2
SMILES: COc1ccc2c3c1O[C@H]1C[C@@H](OC(=O)C(C)C)C=C[C@@]31CCN(C)C2 [GLN-0979]

Co (Brain), highest concentration achieved in mouse brain (in vivo): 2150 ng/mL
Kp (in vivo; mouse, iv, 3 mg/kg): 6.4
SMILES: CCCCCC(=O)O[C@H]1C=C[C@@]23CCN(C)Cc4ccc(OC)c(c42)O[C@H]3C1 [GLN-0993]

SMILES: COc1ccc2c3c1OC1C[C@@H](OC(=O)c4ccccc4)C=C[C@@]31CCN(C)C2 (stereo partly drawn) [GLN-1062, (4aS,6R,8aS)-4a,5,9,10,11,12-Hexahydro-3-methoxy-11-methyl-6H-benzofuro[3a,3,2-ef][2]benzazepin-6-ol, benzoate (ester)]
Kp (in vivo; SAM, mouse): > 19
Co (Brain), highest concentration achieved in mouse brain (in vivo): 4812 ng/mL
concentration of GLN-1062 in blood at start of curve (in vivo; mouse, 3 mg/kg, FIG. 5b): about 0.3 μg/g
Kp (in vivo; mouse, iv, 3 mg/kg): 19.3
inhibition of brain cholinesterase (brain cholinesterase): little, if any cholinesterase inhibitory activity
maximal enhancement of response to acetylcholine [1]: ~17%
potency relative to galantamine in reversing scopolamine-induced amnesia [2]: approximately 4 times

Co (Brain), highest concentration achieved in mouse brain (in vivo): 4665 ng/mL
Kp (in vivo; mouse, iv, 3 mg/kg): 7.5
SMILES: CCC(C)C(=O)O[C@H]1C=C[C@@]23CCN(C)Cc4ccc(OC)c(c42)OC3C1 (stereo partly drawn) [GLN-1067]

Co (Brain), highest concentration achieved in mouse brain (in vivo): 1245 ng/mL
Kp (in vivo; mouse, iv, 3 mg/kg): 1.1
SMILES: COc1ccc2c3c1OC1C[C@@H](OC(=O)C4CC4)C=C[C@@]31CCN(C)C2 (stereo partly drawn) [GLN-1076]

SMILES: COc1ccc2c3c1O[C@H]1C[C@@H](O)C=C[C@@]31CCN(C)C2 [Galantamine]
Co (Brain), highest concentration achieved in mouse brain (in vivo): 1741 ng/mL
Kp (in vivo; mouse, 3 mg/kg): ~1.3
maximal enhancement of response to acetylcholine [1]: ~40%
tissue to plasma ratio (T/P), spleen ([3]; female rat): ~20
tissue to plasma ratio (T/P), kidney ([3]; male and female rat): 10-15
tissue to plasma ratio (T/P), salivary and adrenal gland ([3]; male and female rat): 7-14
brain to plasma ratio (T/P) ([3]; rat): ~1.5
tissue to plasma ratio (T/P), lung, liver, heart, skeletal muscle and testes ([3]; rat): 2-4
brain-to-plasma ratio [4]: ~1.3
